From ChEMBL document CHEMBL1201862, “PubChem BioAssay data set” (2004)
Active and inactive are the calls of the source. Cut-off read from the data, not from the text of the source, for most assays here: actives have a measured EC50 and inactives only a lower limit. Peptide text beside a SMILES is read from it. * marks the point of attachment. Cbz = O=C(OCc1ccccc1)*

How the values were obtained:
[1] = target: Cytochrome P450 2C9 (Homo sapiens, UniProt P11712)
[2] = target: T1, Streptokinase A (Streptococcus pyogenes serotype M1, UniProt P10520); experiment: S. pyogenes streptokinase expression inhibitors, potency, dose response, plasminogen activation absorbance, OD405 (AID 1914); assay type: functional, Streptococcus pyogenes M1 GAS;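 note: secreted streptokinase activity via plasminogen activation per viability signal from cell pellet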
T1 sequence (P10520 whole entry): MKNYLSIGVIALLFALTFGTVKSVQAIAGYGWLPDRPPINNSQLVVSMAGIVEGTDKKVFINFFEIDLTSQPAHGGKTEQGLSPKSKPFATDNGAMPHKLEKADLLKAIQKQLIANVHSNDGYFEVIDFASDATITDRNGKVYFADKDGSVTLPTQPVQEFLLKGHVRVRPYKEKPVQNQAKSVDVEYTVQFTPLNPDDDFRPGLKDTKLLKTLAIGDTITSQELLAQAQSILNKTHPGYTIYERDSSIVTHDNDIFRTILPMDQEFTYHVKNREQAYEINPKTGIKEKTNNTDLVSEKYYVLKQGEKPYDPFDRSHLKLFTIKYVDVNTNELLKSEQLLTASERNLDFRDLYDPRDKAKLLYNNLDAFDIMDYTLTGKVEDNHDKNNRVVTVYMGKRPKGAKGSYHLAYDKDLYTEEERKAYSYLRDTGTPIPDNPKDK

[3] = target: Cytochrome P450 3A4 (Homo sapiens, UniProt P08684);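 note: CYP3A4 tested as one member of a cytochrome P450 panel screen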
Sequence of Cytochrome P450 3A4 (P08684 whole entry): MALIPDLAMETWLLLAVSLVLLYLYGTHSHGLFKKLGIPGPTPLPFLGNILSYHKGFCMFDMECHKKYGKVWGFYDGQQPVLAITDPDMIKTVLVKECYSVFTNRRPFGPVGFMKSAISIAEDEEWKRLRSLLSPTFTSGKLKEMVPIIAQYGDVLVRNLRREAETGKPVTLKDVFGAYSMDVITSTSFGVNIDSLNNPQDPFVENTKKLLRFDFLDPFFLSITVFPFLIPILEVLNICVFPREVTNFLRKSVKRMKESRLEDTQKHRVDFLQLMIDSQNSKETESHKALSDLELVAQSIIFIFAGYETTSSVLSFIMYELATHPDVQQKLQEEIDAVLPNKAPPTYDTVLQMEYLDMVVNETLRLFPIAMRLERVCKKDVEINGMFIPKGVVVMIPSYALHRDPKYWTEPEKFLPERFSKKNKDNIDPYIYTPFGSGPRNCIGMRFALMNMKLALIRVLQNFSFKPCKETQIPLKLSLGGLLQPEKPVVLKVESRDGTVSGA

[4] = inhibitors of intracellular T. cruzi replication, confirmation, NIH3T3 host cells, beta-gal luminescence (AID 2044); assay type: functional, cell-based;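 note: intracellular parasites grown in NIH/3T3 mouse fibroblasts as host cells; luminescent beta-galactosidase reporter signal from transgenic T. cruzi replicating inside host cells; inhibitors lower the luminescence signal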
[5] = cytotoxicity toward NIH3T3 fibroblasts, dose response, counter-screen, cell-based, ATP luminescence, mouse fibroblasts (AID 2010); assay type: functional;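 note: cells exposed to compound for about 90 hours before reading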
[6] = tested on: Streptococcus; experiment: Group A Streptococcus viability loss, dose response, counter-screen for streptokinase expression inhibitor project, luminescence, BacTiterGlo (AID 1915); assay type: functional, organism-based;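 note: potency for reduction of bacterial viability or growth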
[7] = tested on: Streptococcus sp. 'group A'; experiment: growth inhibition of control SK(-) GAS strain, dose response, counter-screen for streptokinase expression inhibitor project, luminescence, kanamycin, BacTiterGlo, confirmation (AID 1900); assay type: functional, organism-based
[8] = target: T2, Corticotropin-releasing factor receptor 2/Corticotropin-releasing factor-binding protein (Homo sapiens, UniProt P24387+Q13324); experiment: Dose Response confirmation of uHTS hits for small molecule antagonists of the CRF-binding protein and CRF-R2 receptor complex.; assay type: functional; conditions: read-out: IC50_Mean
T2 sequence (Q13324 whole entry): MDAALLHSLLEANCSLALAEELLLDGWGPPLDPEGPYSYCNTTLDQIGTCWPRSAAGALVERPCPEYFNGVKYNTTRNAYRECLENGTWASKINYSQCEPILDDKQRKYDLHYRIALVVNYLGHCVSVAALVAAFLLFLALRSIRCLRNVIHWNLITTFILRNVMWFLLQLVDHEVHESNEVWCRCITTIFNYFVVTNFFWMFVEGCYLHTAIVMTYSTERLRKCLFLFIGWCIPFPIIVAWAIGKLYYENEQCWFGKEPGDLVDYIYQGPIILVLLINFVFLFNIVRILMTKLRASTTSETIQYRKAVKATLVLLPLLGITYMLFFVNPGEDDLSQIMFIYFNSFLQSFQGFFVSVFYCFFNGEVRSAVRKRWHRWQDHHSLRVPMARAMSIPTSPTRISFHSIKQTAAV
T2 sequence (P24387 whole entry): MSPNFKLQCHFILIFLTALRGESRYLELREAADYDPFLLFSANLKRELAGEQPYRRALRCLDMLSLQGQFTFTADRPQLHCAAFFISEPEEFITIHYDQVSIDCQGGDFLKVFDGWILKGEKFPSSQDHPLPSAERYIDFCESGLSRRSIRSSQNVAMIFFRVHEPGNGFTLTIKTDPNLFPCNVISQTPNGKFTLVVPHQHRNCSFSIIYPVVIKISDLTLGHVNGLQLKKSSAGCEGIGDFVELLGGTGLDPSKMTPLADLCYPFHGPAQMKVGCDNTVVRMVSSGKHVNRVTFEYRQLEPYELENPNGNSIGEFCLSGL

[9] = target: T2, Corticotropin-releasing factor receptor 2/Corticotropin-releasing factor-binding protein; experiment: activators of CRF receptor 2 with binding protein – uHTS hits, confirmation (AID 602473); assay type: functional; conditions: read-out: EC50_Mean
[10] = target: Paired box protein Pax-8 (Homo sapiens, UniProt Q06710); experiment: inhibitors of PAX8-driven TPO luciferase reporter, dose response, RMG-I cells, cherry-pick (AID 687027); assay type: functional, cell-based;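 note: luciferase reporter driven by Pax8 target thyroperoxidase promoter measured by SteadyGlo luminescence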
Sequence of Paired box protein Pax-8 (Q06710 whole entry): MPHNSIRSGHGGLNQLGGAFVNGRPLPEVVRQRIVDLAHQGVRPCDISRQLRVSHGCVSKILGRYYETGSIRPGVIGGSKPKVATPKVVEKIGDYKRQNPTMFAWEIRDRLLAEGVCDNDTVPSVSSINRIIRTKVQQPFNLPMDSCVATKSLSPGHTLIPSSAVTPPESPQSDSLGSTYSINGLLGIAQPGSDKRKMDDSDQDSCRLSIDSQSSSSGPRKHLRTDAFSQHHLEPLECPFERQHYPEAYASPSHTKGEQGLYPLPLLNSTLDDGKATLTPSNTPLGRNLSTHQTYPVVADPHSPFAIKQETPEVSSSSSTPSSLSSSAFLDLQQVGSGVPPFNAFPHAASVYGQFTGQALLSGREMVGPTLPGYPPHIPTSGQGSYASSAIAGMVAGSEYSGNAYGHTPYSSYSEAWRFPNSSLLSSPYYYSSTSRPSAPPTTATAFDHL

Sequence of Cytochrome P450 2C9 (P11712 whole entry): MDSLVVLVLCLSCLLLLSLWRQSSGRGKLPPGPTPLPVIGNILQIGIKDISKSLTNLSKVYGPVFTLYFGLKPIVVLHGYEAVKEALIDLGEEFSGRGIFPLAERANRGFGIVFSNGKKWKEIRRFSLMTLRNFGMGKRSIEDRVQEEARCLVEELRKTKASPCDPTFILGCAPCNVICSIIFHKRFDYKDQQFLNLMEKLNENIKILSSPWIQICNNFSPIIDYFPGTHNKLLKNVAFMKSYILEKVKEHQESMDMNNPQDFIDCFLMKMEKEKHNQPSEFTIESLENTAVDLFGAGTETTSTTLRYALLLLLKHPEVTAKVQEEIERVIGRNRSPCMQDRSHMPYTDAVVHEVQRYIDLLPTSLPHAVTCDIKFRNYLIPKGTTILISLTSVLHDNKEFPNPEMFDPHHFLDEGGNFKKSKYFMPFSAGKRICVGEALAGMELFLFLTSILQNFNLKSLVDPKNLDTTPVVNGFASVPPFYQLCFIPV

Row | Structure (SMILES) | EC50 [4] | EC50 [5] | other results
1 | N=C(N)SCc1cccc(-c2nc3ccccc3c(=O)o2)c1 |  |  | AC50 [1]: 5.01 µM (inconclusive)
2 | O=c1[nH]c2ccc(Cl)cc2c(-c2ccccc2)c1N1CCN(c2ccccn2)CC1 |  |  | EC50 [2]: 3.83 µM (active)
3 | O=C(CCNS(=O)(=O)c1cccs1)N1CCc2ccccc2C1 |  |  | AC50 [3]: 14.1 µM (inconclusive)
4 | Cn1nc([N+](=O)[O-])nc1Oc1ccccc1C(=O)N1CCOCC1 | 0.117 µM (active) | > 60 µM (not active) | 
5 | Cc1noc(C)c1CSc1nc2sc(C)c(C)c2c(=O)n1-c1ccccc1 | 1.02 µM (active) | > 60 µM (not active) | 
6 | COc1c(CC=C(C)C)cc(C2CC(=O)c3c(O)cc(O)cc3O2)c(CC=C(C)C)c1O (configuration not stated) |  |  | EC50 [6]: 2.9 µM (active); EC50 [7]: 3.02 µM (active)
7 | Cc1nnsc1C(=O)NC1CCCc2c1cnn2-c1ccc(C(C)(C)C)cc1 (configuration not stated) | 1.98 µM (active) | > 60 µM (not active) | 
8 | Cc1nnc2n(Cc3ccccc3)c(=O)c3c4c(sc3n12)COC(C)(C)C4 |  |  | IC50 [8]: > 47.1 µM (inactive); EC50 [9]: > 53 µM (inactive)
9 | CCCNCCC(c1ccco1)c1ccccc1OC (configuration not stated) |  |  | IC50 [8]: > 47.1 µM (inactive); EC50 [9]: > 53 µM (inactive)
10 | COc1ccc(C(=O)OCC(=O)N(C)C2CCS(=O)(=O)C2)cc1S(=O)(=O)N(C)Cc1ccccc1 (configuration not stated) |  |  | IC50 [8]: > 47.1 µM (inactive); EC50 [9]: > 53 µM (inactive)
11 | COc1cc(CNCc2ccncc2)cc(Br)c1OCc1ccccc1F | 2.83 µM (active) | > 30 µM (not active) | 
12 | Cc1ccc(NC(=O)CN(c2ccc(Cl)cc2)S(=O)(=O)c2cc([N+](=O)[O-])ccc2Cl)c(C)c1 | 2.42 µM (active) | > 60 µM (inconclusive) | 
13 | O=C(c1cnn2c(C(F)(F)F)cc(-c3cccs3)nc12)N1CCN(Cc2ccccc2)CC1 | 0.721 µM (active) | > 60 µM (not active) | 
14 | COc1ccc(N2CCN(C3CCCCC3NS(=O)(=O)c3ccc(Cl)cc3)CC2)cc1 (configuration not stated) |  |  | EC50 [9]: 4.33 µM (active)
15 | O=c1c(-c2cccc(Cl)c2)nc2cncnc2n1C1CC1 |  |  | AC50 [3]: 15.8 µM (inconclusive)
16 | Cc1cc(C)n(-c2nc(SCCN(C)C)c3c4c(sc3n2)COC(C)(C)C4)n1 | 0.836 µM (active) | > 30 µM (not active) | 
17 | O=C(CSc1nnc(CNc2ccc(F)cc2)o1)OC1CCCCC1 |  |  | AC50 [1]: 17.8 µM (inconclusive)
18 | O=C1CC(NS(=O)(=O)c2ccc([N+](=O)[O-])cc2)CN1c1ccc(Cl)cc1 (configuration not stated) | 0.477 µM (active) | > 60 µM (not active) | 
19 | CCOC(=O)C1=C(CCc2ccccc2)NC(=O)NC1c1cccc([N+](=O)[O-])c1 (configuration not stated) |  |  | IC50 [8]: > 47.1 µM (inactive); EC50 [9]: > 53 µM (inactive)
20 | C=CCc1cccc(/C=N/NC(=O)C(C)Nc2cccc(C)c2)c1O (configuration not stated) | 1.84 µM (active) | > 30 µM (not active) | 
21 | C[C@@H]1CN([C@@H](C)CO)C(=O)c2cc(NC(=O)Nc3ccc(C(F)(F)F)cc3)ccc2O[C@@H](C)CCCCO[C@@H]1CN(C)Cc1ccncc1 |  |  | AC50 [10]: 9.03 µM (active)
22 | Cc1[nH]cnc1C(=O)N/N=C/c1ccc([N+](=O)[O-])s1 | 0.449 µM (active) | > 60 µM (not active) | EC50 [6]: 5.18 µM (active); EC50 [7]: 2.91 µM (active)
23 | CCn1/c(=N\C(=O)CS(=O)(=O)c2ccc(C)cc2)sc2cccc(OC)c21 | 1.2 µM (active) | 8.46 µM (active) | 
24 | O=C(N/N=C/c1ccc(-c2cccc(C(F)(F)F)c2)o1)c1cccc(F)c1 | 1.15 µM (active) | > 60 µM (not active) | 
25 | Clc1ccc2c(N/N=C/c3cccnc3)ccnc2c1 | 0.931 µM (active) | > 60 µM (not active) | 
26 | CC(C)[C@H](NC(=O)OCc1ccccc1)C(=O)N[C@H](C=O)Cc1ccccc1 (Cbz-Val-Phe-aldehyde) |  |  | AC50 [1]: 39.8 µM (inconclusive)
27 | C[C@@H](C(=O)O)c1ccc(C(=O)c2cccs2)cc1 [(R)-SUPROFEN] |  |  | AC50 [1]: 12.6 µM (inconclusive)
